Key:
[1] = system: MDA-MB-468 breast cancer xenografts; assay: MDA-MB-468 breast cancer xenograft, ADC with AZD5305; format: in vivo, mice; conditions: AZD5305 individually, 0.1 mg/kg and 1 mg/kg, once daily oral, 28 days; FIG. 7
Procedure: MDA-MB-468 cells were injected 5×10^6 per mouse into the mammary fat pad of female CB-17 SCID mice. […] Tumor and body weight measurements were recorded twice weekly for the duration of the study.
All animal experiments were conducted in a facility accredited by the Association for Assessment and Accreditation of Laboratory Animal Care under the guidelines of AstraZeneca's Institutional Animal Care and Use Committee and appropriate animal research approvals. Cell line xenograft models were established through subcutaneous implantation of cells in 50% Matrigel (Corning, Corning, NY, USA) in either the right mammary fat pad (MX-1, MDA-MB-468) or left flank (HT29, HT29-huB7-H4) of female CB-17 mice (Envigo, Frederick, MD, USA). When tumor volume reached 150-200 mm^3, mice were randomized and given a single intravenous (IV) injection of vehicle control (20 mM histidine, pH 6; 240 mM sucrose; 0.02% PS-80) or ADCs. Body weight and tumor measurements were determined once or twice weekly, and tumor volume was calculated with the formula

[2] = preclinical models; cited from earlier work

CCc1cc2ncc(CN3CCN(c4ccc(C(=O)NC)nc4)CC3)cc2[nH]c1=O [AZD5305, 5-[4-[(7-ethyl-6-oxo-5H-1,5-naphthyridin-3-yl)methyl]piperazin-1-yl]-N-methyl-pyridine-2-carboxamide]
anti-tumor activity in vivo (tumor size over time) [1]: little to no anti-tumor activity
hematological toxicity in comparison with non-selective PARPi [2]: reduced hematological toxicity
